Results from patent US10233193B2, “Fused tricyclic heterocyclic compounds useful for treating HIV infection” (MERCK SHARP & DOHME CORP., priority 2015, dated 2019).
pIC50: −log10 of the molar value. Read-outs that look alike come from different tables or passages of the source.

Tested on: HIV-1 (NL4-3 strain)
Test: Assay for inhibition of HIV replication (MT4-gag-GFP reporter cell line, wild type cell assay, Viking)
Type: cell-based
Conditions: IP or IC50 from 4-parameter dose response curve
Protocol: This assay is a kinetic assay that employs a reporter cell line (MT4-gag-GFP) to quantify the number of new cells infected in each round of replication.
MT4-GFP cells (250,000 cells/ml) were bulk-infected with HIV-1 (NL4-3 strain) at low multiplicity of infection (MOI) in RPMI+10% FBS for 24 hours. Cells were then washed once in RPMI+10% FBS and resuspended in RPMI+0% or 10% or 100% normal human serum (NHS). Test compounds were serial-diluted in DMSO on ECHO. The infected MT4-GFP cells were added to a 384-well poly-D-lysine coated black plate with clear bottom in which the diluted test compounds were placed. The cells were seeded at 8,000 cells per well and the final DMSO concentration was 0.4%. The infected cells (Green GFP cells) were quantified at both 24 and 48 hours post incubation using Acumen eX3. Viral reproductive ratio (R0) was determined using the number of infected cells at 48 hours divided by the number of infected cells at 24 hours. Percent viral growth inhibition was calculated by [1−(R−Rtripledrug)/(RDMSO−Rtripledrug)]*100. Compound potency IP or IC50 was determined by a 4-parameter dose response curve analysis.
Illustrative compounds of the present invention were tested using this assay protocol and results are presented below in Table A.

Question: `CN1CC[C@@H]2C1C(C)(C)C(=O)c1c(O)c(=O)c(C(=O)NCc3ccc(F)cc3F)cn12` (some centres unmarked) [Compound 9] was tested. Which pIC50 (infected MT4-GFP cells in 100% normal human serum, read-out: WILD TYPE CELL ASSAY Viking IP (100% NHS)) did it give?
Answer: Its pIC50 is 6.76.

Question: And the pIC50 (infected MT4-GFP cells in RPMI + 0% normal human serum, read-out: WILD TYPE CELL ASSAY Viking IP (0% NHS))?
Answer: Its pIC50 is 8.28.
